Experiment [1] addresses T1, Adenosine receptor A2a (Rattus norvegicus, UniProt P30543).
Description: Dissociation constant of [3H]ZM-241385 binding to adenosine A2A receptor(AR)
Experiment [2] concerns the target T1, Adenosine receptor A2a. The source holds these as a separate data set.
Description: Inhibition of [3H]ZM-241385 binding to adenosine A2A receptor(AR).
For experiment [3], the target named is T2, Adenosine receptor A1 (Homo sapiens) (UniProt P30542).
T2 sequence (whole entry): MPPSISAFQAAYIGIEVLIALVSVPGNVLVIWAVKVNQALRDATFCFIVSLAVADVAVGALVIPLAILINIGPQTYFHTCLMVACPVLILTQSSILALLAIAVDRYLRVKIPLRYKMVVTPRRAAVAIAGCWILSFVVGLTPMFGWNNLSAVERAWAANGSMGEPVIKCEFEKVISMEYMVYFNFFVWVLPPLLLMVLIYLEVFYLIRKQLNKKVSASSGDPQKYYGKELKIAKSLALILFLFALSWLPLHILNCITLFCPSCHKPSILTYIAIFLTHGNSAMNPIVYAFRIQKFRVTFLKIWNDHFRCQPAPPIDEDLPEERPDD
Put plainly: Percent loss of [3H]-DPCPX binding to adenosine A1 receptor at 200 nM. The conditions noted are these: Cricetulus griseus.

The target in the next experiment is T3, Adenosine receptor A1 (Homo sapiens, UniProt P30542).
T3 sequence (P30542 whole entry): T2 sequence (whole entry)
The experiment can be described thus: Inhibition of [3H]-DPCPX binding to adenosine A1 receptor (AR). On the set-up: species or system Cricetulus griseus.

For experiment [4], the target named is T2, Adenosine receptor A1 (Homo sapiens). Put plainly: Percent loss of [3H]DPCPX binding to adenosine A1 receptor at 0.05 nM. The conditions noted are these: Cricetulus griseus.
Experiment [5] shares this target. The experiment can be described thus: Percent loss of [3H]DPCPX binding to adenosine A1 receptor at 5 nM. The conditions noted are these: Cricetulus griseus.
Experiment [6] has the same target. Put plainly: Percent loss of [3H]-DPCPX binding to adenosine A1 receptor at 100 nM. The conditions noted are these: Cricetulus griseus.
The target is the same in experiment [7]. Put plainly: Percent loss of [3H]DPCPX binding to adenosine A1 receptor at 0.1 nM. The conditions noted are these: Cricetulus griseus.

Here are results for nine compounds from ChEMBL document CHEMBL1133597, “Fluorosulfonyl-substituted xanthines as selective irreversible antagonists for the A(1)-adenosine receptor” (J Med Chem, 2000).

By Kd is commonly meant the free concentration of one partner at which half of the binding sites on the other are occupied at equilibrium, for simple one-to-one binding. Usually IC50 stands for the concentration at which inhibition is half-maximal.

T1 sequence (P30543 whole entry): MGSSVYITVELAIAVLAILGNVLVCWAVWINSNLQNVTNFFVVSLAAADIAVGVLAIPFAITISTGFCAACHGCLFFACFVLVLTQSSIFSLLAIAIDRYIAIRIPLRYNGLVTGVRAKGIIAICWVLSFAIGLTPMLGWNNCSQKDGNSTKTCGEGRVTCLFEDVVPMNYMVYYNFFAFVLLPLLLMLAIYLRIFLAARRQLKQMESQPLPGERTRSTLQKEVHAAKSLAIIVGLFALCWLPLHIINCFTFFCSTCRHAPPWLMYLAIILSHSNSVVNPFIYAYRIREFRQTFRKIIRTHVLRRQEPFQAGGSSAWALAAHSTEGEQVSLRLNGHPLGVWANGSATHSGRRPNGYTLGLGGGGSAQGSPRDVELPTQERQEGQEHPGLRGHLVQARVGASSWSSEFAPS

Compound `CCCn1c(=O)c2[nH]c(C3CCCC3)nc2n(CCCOC(=O)c2ccc(S(=O)(=O)F)cc2)c1=O` had a Kd at Adenosine receptor A2a [1] of 0.23 nM. This compound also came in with an IC50 against Adenosine receptor A2a [2] of 1.2 nM.

`CCCn1c(=O)c2nc(C3CCCCC3)[nH]c2n(CCCCCc2ccc(S(=O)(=O)F)cc2)c1=O` registered a Loss in experiment [3] of 43%. The values for the IC50 at Adenosine receptor A1 and at Adenosine receptor A2a [2] were 101 nM and more than 10 nM, respectively.

In turn, `CCCn1c(=O)c2nc(C3CCCCC3)[nH]c2n(Cc2ccc(S(=O)(=O)F)cc2)c1=O` yielded a Loss in experiment [3] of 0%.

As for `CCCn1c(=O)c2nc(C3CCCC3)[nH]c2n(CCCNC(=O)c2ccc(S(=O)(=O)F)cc2)c1=O`, the Loss in experiment [4] came to 33%; in experiment [5], 74%; in experiment [6] it was 83%; in experiment [7], 64%. The Kd on Adenosine receptor A2a [1] stood at 0.34 nM. Moreover, half-maximal inhibition on Adenosine receptor A2a [2] (IC50) was put at 2.8 nM.

As to `CCCn1c(=O)c2[nH]c(C3CCCCC3)nc2n(CCCc2ccc(S(=O)(=O)F)cc2)c1=O`, the IC50 at Adenosine receptor A1 was 112 nM; on Adenosine receptor A2a [2], more than 10 nM.

Compound `CCCn1c(=O)c2nc(C3CCCC3)[nH]c2n(CCCOC(=O)c2ccc(S(=O)(=O)F)cc2)c1=O` showed a Loss in experiment [5] of 67%.

As to `CCCn1c(=O)c2nc(C3CCCCC3)[nH]c2n(CCCNC(=O)c2ccc(S(=O)(=O)F)cc2)c1=O`, the Loss in experiment [4] amounted to 16%; in experiment [5], 64%; in experiment [6], 82%; in experiment [7], 43%. At Adenosine receptor A1, this compound yielded an IC50 of 24.9 nM.

As for `CCCn1c(=O)c2[nH]c(C3CCCCC3)nc2n(Cc2ccc(S(=O)(=O)F)cc2)c1=O`, the values for the IC50 at Adenosine receptor A1 and at Adenosine receptor A2a [2] were 165 nM and more than 10 nM, respectively.

Consider `CCCn1c(=O)c2nc(C3CCCCC3)[nH]c2n(CCCc2ccc(S(=O)(=O)F)cc2)c1=O`, for which the Loss in experiment [3] was found to be 11%.
